Data: patent publication US9675681B2, “Shortened purification process for the production of capsular Streptococcus pneumoniae polysaccharides” (priority 2007, dated 2017)

How the values were obtained:
D39 ΔlytA = test: Microtiter plate lysis assay, strain D39 ΔlytA; format: cell-based, S. pneumoniae; settings: compound 0.1%, 15 min at 36° C.
Text: (§1) Mitrotiter Assay: A rapid microtiter plate assay was devised for examining lytA-dependent lysis of pneumococci by different detergents or surfactants. Two pairs of isogenic strains of S. pneumoniae were used in the assay; one member of each pair was wild type for the lytA gene while the other strain carried a deletion in the lytA gene Thus, if lysis were dependent on an active lytA function, that detergent would not lyse the mutant strains. The four strains, R6X, R6X ΔlytA, D39 and D39 ΔlytA, were cultivated in HySoy medium to approximately mid-log phase (OD600˜0.2-0.8; OD600=Optical Density at 600 nm). Cells were then centrifuged and cell pellets were resuspended in HySoy medium. To each well of the microtiter plate, 100 μL, of cell suspension was added, along with 10 μL, of detergent stocks or water as a control. After about 15 minutes at 36° C., the OD600 of the samples was measured with a Spectramax® spectrophotometer (Molecular Devices, Sunnyvale, Calif.).
(§2) Isogenic pairs of strains containing the lytA mutation were grown in a Hy-Soy based medium. The cells were harvested and dispensed into wells in a microttiter plate. The test compound was added and the culture was incubated. After 15 min at 36° C., the optical density (OD600) of each well was determined using a SpectraMax® plate reader (Molecular Devices, Sunnyvale, CALIF.)(see Tables 17 and 18, which summarize results from two separate tests for exemplary compounds).

D39 = test: Microtiter plate lysis assay, strain D39 (wild type lytA); format: cell-based, S. pneumoniae; settings: compound 0.1%, 15 min at 36° C.
Description: as §1, with “Two pairs of isogenic strains of S. pneumoniae were used in the assay; one member of each pair was wild type for the lytA gene while the other strain carried a deletion in the lytA gene Thus, if lysis were dependent on an active lytA function, that detergent would not lyse the mutant strains.” left out
(§3) Isogenic pairs of strains containing the lytA mutation were grown in a Hy-Soy based medium. The cells were harvested and dispensed into wells in a microttiter plate. The test compound was added and the culture was incubated.

R6X ΔlytA = test: Microtiter plate lysis assay, strain R6X ΔlytA; format: cell-based, S. pneumoniae; settings: compound 0.1%, 15 min at 36° C.
Text: as §1, §2

R6X = test: Microtiter plate lysis assay, strain R6X (wild type lytA); format: cell-based, S. pneumoniae; settings: compound 0.1%, 15 min at 36° C.
Text: as §1, §2

[1] = test system: Streptococcus pneumoniae cells; test: Screening for non-animal derived lytic agents (serotypes 1 and 6B PS release by SEC-HPLC; lytA mutants); format: cell-based; settings: screening studies with serotypes 1 and 6B and lytA mutants
Description: Cell Lysis: Compounds to be tested were added to fermentation broth at a final concentration of 0.1 to 0.01% (v/v) and the solution was allowed to incubate at 37° C. for one hour. The solution was then stored at 2-8° C. overnight. The following morning the solution was centrifuged to remove all cell debris. The cell-free broth was analyzed by SEC-HPLC to determine the concentration of released polysaccharide. The lysis could be performed at any temperature between 2-37° C., preferably at a pH range of 6.0-7.5. The concentration of the detergent was typically between 0.05-0.2% depending on the particular detergent.
S. pneumoniae serotypes 1 and 6B were separately grown in Hy-Soy based media. The cultures were separately harvested and separately dispensed into tubes. […] After overnight incubation, the tubes were centrifuged and the PS content of the lysates for each serotype were determined by SEC-HPLC and compared to DOC.
as §3

[2] = test system: ΔlytA cells (R6X ΔlytA, D39 ΔlytA); test: Microtiter plate lysis assay, ΔlytA cells; format: cell-based, S. pneumoniae; settings: freshly prepared or frozen and thawed cells; about 15 minutes at 36° C.
Text: as §1

[3] = test system: Wild-type cells (R6X, D39); test: Microtiter plate lysis assay, wild-type cells; format: cell-based, S. pneumoniae; settings: freshly prepared or frozen and thawed cells; about 15 minutes at 36° C.
Text: as §1

C[C@H](CCC(=O)O)[C@H]1CC[C@H]2[C@@H]3CC[C@@H]4C[C@H](O)CC[C@]4(C)[C@H]3CC[C@]12C [Lithocholic acid]
Change in OD600, D39 ΔlytA (D39 ΔlytA; Test 1): −2%
Change in OD600, D39 (D39; Test 1): 8%
Change in OD600, R6X ΔlytA (R6X ΔlytA; Test 1): 16%
Change in OD600, R6X (R6X; Test 1): 20%

CCCCCCCCCCS(=O)(=O)O [decanesulfonic acid]
Lytic activity compared to DOC (outcome of the screening studies) [1]: non-animal derived lytic agent alternatives to DOC

C[C@H](CCC(=O)O)[C@H]1CC[C@H]2[C@@H]3[C@H](O)C[C@@H]4C[C@H](O)CC[C@]4(C)[C@H]3CC[C@]12C [chenodeoxycholate]
Lytic activity compared to DOC (outcome of the screening studies) [1]: non-animal derived lytic agent alternatives to DOC

C[C@H](CCC(=O)NCCS(=O)(=O)O)[C@H]1CC[C@H]2[C@@H]3[C@H](O)C[C@@H]4C[C@H](O)CC[C@]4(C)[C@H]3CC[C@]12C [taurochenodeoxycholate]
Lytic activity compared to DOC (outcome of the screening studies) [1]: non-animal derived lytic agent alternatives to DOC

CCCCCCCC/C=C\CCCCCCCC(=O)OCCOCC(OCCO)C1OCC(OCCO)C1OCCO (centres unmarked) [Tween 80]
Change in OD600, D39 ΔlytA (D39 ΔlytA; Test 1): 19%
Change in OD600, D39 (D39; Test 1): 20%
Change in OD600, R6X ΔlytA (R6X ΔlytA; Test 1): 14%
Change in OD600, R6X (R6X; Test 1): 36%

CCCCCCCCCCCCN(C)CC(=O)O [N-lauryl sarcosine]
Lysis of ΔlytA cells [2]: did not lyse
Change in OD600, D39 ΔlytA (D39 ΔlytA; Test 1): −44%
Change in OD600, D39 ΔlytA (D39 ΔlytA; Test 2): 14%
Change in OD600, D39 (D39; Test 1): 89%
Change in OD600, D39 (D39; Test 2): 101%
Change in OD600, R6X ΔlytA (R6X ΔlytA; Test 1): −34%
Change in OD600, R6X ΔlytA (R6X ΔlytA; Test 2): −40%
Change in OD600, R6X (R6X; Test 1): 100%
Change in OD600, R6X (R6X; Test 2): 102%
Lytic activity compared to DOC (outcome of the screening studies) [1]: non-animal derived lytic agent alternatives to DOC
Lysis of wild-type cells (OD600 versus medium blank) [3]: lysis had occurred

C[C@H](CCC(=O)NCC(=O)O)[C@H]1CC[C@H]2[C@@H]3CC[C@@H]4C[C@H](O)CC[C@]4(C)[C@H]3C[C@H](O)[C@]12C [glycodeoxycholate]
Lytic activity compared to DOC (outcome of the screening studies) [1]: non-animal derived lytic agent alternatives to DOC

CCCCCCCCCCCCN(CCC(=O)O)CCC(=O)O [lauryl iminodipropionate]
Lytic activity compared to DOC (outcome of the screening studies) [1]: non-animal derived lytic agent alternatives to DOC

CCCCCCCCCCCCOS(=O)(=O)[O-].[Na+] [SDS, sodium dodecyl sulfate]
Lysis of ΔlytA cells [2]: did not lyse
Change in OD600, D39 ΔlytA (D39 ΔlytA; Test 1): 36%
Change in OD600, D39 ΔlytA (D39 ΔlytA; Test 2): 16%
Change in OD600, D39 (D39; Test 1): 95%
Change in OD600, D39 (D39; Test 2): 100%
Change in OD600, R6X ΔlytA (R6X ΔlytA; Test 1): 28%
Change in OD600, R6X ΔlytA (R6X ΔlytA; Test 2): −13%
Change in OD600, R6X (R6X; Test 1): 99%
Change in OD600, R6X (R6X; Test 2): 102%
Lytic activity compared to DOC (outcome of the screening studies) [1]: non-animal derived lytic agent alternatives to DOC
Lysis of wild-type cells (OD600 versus medium blank) [3]: lysis had occurred

CCCCCCC(=O)O [Heptanoic acid]
Change in OD600, D39 ΔlytA (D39 ΔlytA; Test 1): −30%
Change in OD600, D39 (D39; Test 1): 7%
Change in OD600, R6X ΔlytA (R6X ΔlytA; Test 1): −57%
Change in OD600, R6X (R6X; Test 1): 25%

Triton ® X-100
Lysis of ΔlytA cells [2]: did not lyse
Change in OD600, D39 ΔlytA (D39 ΔlytA; Test 1): 30%
Change in OD600, D39 ΔlytA (D39 ΔlytA; Test 2): 4%
Change in OD600, D39 (D39; Test 1): 97%
Change in OD600, D39 (D39; Test 2): 100%
Change in OD600, R6X ΔlytA (R6X ΔlytA; Test 1): 22%
Change in OD600, R6X ΔlytA (R6X ΔlytA; Test 2): −19%
Change in OD600, R6X (R6X; Test 1): 91%
Change in OD600, R6X (R6X; Test 2): 101%
Lytic activity compared to DOC (outcome of the screening studies) [1]: non-animal derived lytic agent alternatives to DOC
Lysis of wild-type cells (OD600 versus medium blank) [3]: lysis had occurred

C[C@H](CCC(=O)O)[C@H]1CC[C@H]2[C@@H]3CC[C@@H]4C[C@H](O)CC[C@]4(C)[C@H]3C[C@H](O)[C@]12C [Deoxycholic acid]
Change in OD600, D39 ΔlytA (D39 ΔlytA; Test 1): 47%
Change in OD600, D39 ΔlytA (D39 ΔlytA; Test 2): 41%
Change in OD600, D39 (D39; Test 1): 99%
Change in OD600, D39 (D39; Test 2): 101%
Change in OD600, R6X ΔlytA (R6X ΔlytA; Test 1): 34%
Change in OD600, R6X ΔlytA (R6X ΔlytA; Test 2): 20%
Change in OD600, R6X (R6X; Test 1): 100%
Change in OD600, R6X (R6X; Test 2): 103%

Tauroglycocholic acid
Change in OD600, D39 ΔlytA (D39 ΔlytA; Test 1): −20%
Change in OD600, D39 (D39; Test 1): 47%
Change in OD600, R6X ΔlytA (R6X ΔlytA; Test 1): −16%
Change in OD600, R6X (R6X; Test 1): 51%

CCCCCCCCS(=O)(=O)O [Octanesulfonic acid]
Change in OD600, D39 ΔlytA (D39 ΔlytA; Test 1): 16%
Change in OD600, D39 ΔlytA (D39 ΔlytA; Test 2): −3%
Change in OD600, D39 (D39; Test 1): 34%
Change in OD600, D39 (D39; Test 2): 18%
Change in OD600, R6X ΔlytA (R6X ΔlytA; Test 1): 6%
Change in OD600, R6X ΔlytA (R6X ΔlytA; Test 2): 3%
Change in OD600, R6X (R6X; Test 1): 43%
Change in OD600, R6X (R6X; Test 2): 13%

C[C@H](CCC(=O)O)[C@H]1CC[C@H]2[C@@H]3C[C@H](O)[C@@H]4C[C@H](O)CC[C@]4(C)[C@H]3CC[C@]12C [hyodeoxycholate]
Lytic activity compared to DOC (outcome of the screening studies) [1]: non-animal derived lytic agent alternatives to DOC

tert-Octylphenoxy poly(oxyethylene)ethanol [Igepal® CA-630]
Lytic activity compared to DOC (outcome of the screening studies) [1]: non-animal derived lytic agent alternatives to DOC

C[C@H](CCC(=O)NCCS(=O)(=O)O)[C@H]1CC[C@H]2[C@@H]3CC[C@@H]4C[C@H](O)CC[C@]4(C)[C@H]3C[C@H](O)[C@]12C [taurodeoxycholate]
Lytic activity compared to DOC (outcome of the screening studies) [1]: non-animal derived lytic agent alternatives to DOC

C[C@H](CCC(=O)O)[C@H]1CC[C@H]2[C@@H]3[C@H](O)C[C@@H]4C[C@H](O)CC[C@]4(C)[C@H]3C[C@H](O)[C@]12C [cholate]
Lytic activity compared to DOC (outcome of the screening studies) [1]: non-animal derived lytic agent alternatives to DOC
